Assay results reported in US20230278972A1, “SUBSTITUTED HALOALKYL SULFONANILIDE HERBICIDES” (FMC Corporation, priority 2020, published 2023).

Tests used:
Assay type in all cases: in vivo
[1] = system: wheat (Triticum aestivum); assay: Test A postemergence, wheat; settings: Postemergence, 0 to 100 scale (0 no effect, 100 complete control); for Wheat plant response rating: 500 g ai/ha, visual injury vs untreated controls after approx. 10 days
Method in brief: (§1)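 Test chemicals, formulated in a non-phytotoxic solvent mixture with surfactant, were sprayed postemergence on plants 2 to 10 cm tall at the one- to two-leaf stage. Preemergence treatment was a directed soil spray onto freshly seeded pots. Both used a loam soil and sand blend.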

[2] = system: barnyardgrass (Echinochloa crus-galli); assay: Test A postemergence, barnyardgrass; settings: Postemergence, 0 to 100 scale (0 no effect, 100 complete control); for Barnyardgrass plant response rating: 500 g ai/ha, visual injury vs untreated controls after approx. 10 days
Method in brief: as §1

[3] = system: pigweed (Amaranthus retroflexus); assay: Test A postemergence, pigweed; settings: Postemergence, 0 to 100 scale (0 no effect, 100 complete control); for Pigweed plant response rating: 500 g ai/ha, visual injury vs untreated controls after approx. 10 days
Method in brief: (§2)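 Directed soil spray at planting gave the preemergence treatment, while foliar application to one- to two-leaf seedlings (2–10 cm) gave the postemergence one; pots held a loam and sand mixture and chemicals were carried in a non-phytotoxic solvent with surfactant.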

[4] = system: blackgrass (Alopecurus myosuroides); assay: Test A postemergence, blackgrass; settings: Postemergence, 0 to 100 scale (0 no effect, 100 complete control); for Blackgrass plant response rating: 500 g ai/ha, visual injury vs untreated controls after approx. 10 days
Method in brief: as §2

[5] = system: Ryegrass, Italian (Italian ryegrass, Lolium multiflorum); assay: Test A postemergence, Ryegrass, Italian; settings: Postemergence, 0 to 100 scale (0 no effect, 100 complete control); for Ryegrass, Italian plant response rating: 500 g ai/ha, visual injury vs untreated controls after approx. 10 days
Method in brief: as §2

[6] = system: barnyardgrass (Echinochloa crus-galli); assay: Test A preemergence, barnyardgrass; settings: Preemergence; for Barnyardgrass plant response rating: 125 g ai/ha, visual injury on 0 to 100 scale (0 no effect, 100 complete control), approximately 10 days; for Plant response rating, Barnyardgrass: 0 to 100 scale (0 no effect, 100 complete control)
Method in brief: as §2

corn (Zea mays) = assay: Test A postemergence, corn; settings: Postemergence, 0 to 100 scale (0 no effect, 100 complete control); for Corn plant response rating: 500 g ai/ha, visual injury vs untreated controls after approx. 10 days
Method in brief: as §2

[7] = system: Foxtail, Giant (giant foxtail, Setaria faberi); assay: Test A preemergence, Foxtail, Giant; settings: Preemergence; for Foxtail, Giant plant response rating: 125 g ai/ha, visual injury on 0 to 100 scale (0 no effect, 100 complete control), approximately 10 days; for Plant response rating, Foxtail, Giant: 0 to 100 scale (0 no effect, 100 complete control)
Method in brief: as §2

[8] = system: Ryegrass, Italian (Italian ryegrass, Lolium multiflorum); assay: Test A preemergence, Ryegrass, Italian; settings: Preemergence; for Ryegrass, Italian plant response rating: 125 g ai/ha, visual injury on 0 to 100 scale (0 no effect, 100 complete control), approximately 10 days; for Plant response rating, Ryegrass, Italian: 0 to 100 scale (0 no effect, 100 complete control)
Method in brief: as §2

[9] = system: ragweed (common ragweed, Ambrosia artemisiifolia); assay: Test A postemergence, ragweed; settings: Postemergence, 0 to 100 scale (0 no effect, 100 complete control); for Ragweed plant response rating: 500 g ai/ha, visual injury vs untreated controls after approx. 10 days
Method in brief: as §2

[10] = system: Foxtail, Giant (giant foxtail, Setaria faberi); assay: Test A postemergence, Foxtail, Giant; settings: Postemergence, 0 to 100 scale (0 no effect, 100 complete control); for Foxtail, Giant plant response rating: 500 g ai/ha, visual injury vs untreated controls after approx. 10 days
Method in brief: as §2

kochia (Bassia scoparia) [11] = assay: Test A postemergence, kochia; settings: Postemergence, 0 to 100 scale (0 no effect, 100 complete control); for Kochia plant response rating: 500 g ai/ha, visual injury vs untreated controls after approx. 10 days
Method in brief: as §2

kochia (Bassia scoparia) [12] = assay: Test A preemergence, kochia; settings: Preemergence; for Kochia plant response rating: 125 g ai/ha, visual injury on 0 to 100 scale (0 no effect, 100 complete control), approximately 10 days; for Plant response rating, Kochia: 0 to 100 scale (0 no effect, 100 complete control)
Method in brief: as §2

[13] = system: pigweed (Amaranthus retroflexus); assay: Test A preemergence, pigweed; settings: for Pigweed plant response rating: 125 g ai/ha, visual injury on 0 to 100 scale (0 no effect, 100 complete control), approximately 10 days; for Plant response rating, Pigweed: 0 to 100 scale (0 no effect, 100 complete control)
Method in brief: as §1

[14] = system: ragweed (common ragweed, Ambrosia artemisiifolia); assay: Test A preemergence, ragweed; settings: Preemergence; for Ragweed plant response rating: 125 g ai/ha, visual injury on 0 to 100 scale (0 no effect, 100 complete control), approximately 10 days; for Plant response rating, Ragweed: 0 to 100 scale (0 no effect, 100 complete control)
Method in brief: as §2

[15] = system: galium (catchweed bedstraw, Galium aparine); assay: Test A postemergence, galium; settings: Postemergence, 0 to 100 scale (0 no effect, 100 complete control); for Galium plant response rating: 500 g ai/ha, visual injury vs untreated controls after approx. 10 days
Method in brief: as §1

[16] = 125 g ai/ha, visual injury approx. 10 days
[17] = 1000 g ai/ha, visual injury, approx. 10 days

Row | SMILES | Plant response rating, Wheat [1, 16] | Wheat plant response rating [1] | Plant response rating, Barnyardgrass [2, 16] | Barnyardgrass plant response rating [2] | Plant response rating, Pigweed [3, 16] | Pigweed plant response rating [3] | Plant response rating, Blackgrass [4, 16] | Blackgrass plant response rating [4] | Plant response rating, Ryegrass, Italian [5, 16] | Ryegrass, Italian plant response rating [5] | Barnyardgrass plant response rating [6] | Plant response rating, Barnyardgrass ([6]; 500 g ai/ha) | Plant response rating, Corn (corn (Zea mays); [16]) | Corn plant response rating (corn (Zea mays)) | Foxtail, Giant plant response rating [7] | Plant response rating, Foxtail, Giant ([7]; 500 g ai/ha) | Ryegrass, Italian plant response rating [8] | Plant response rating, Ryegrass, Italian ([8]; 500 g ai/ha) | Plant response rating, Ragweed [9, 16] | Ragweed plant response rating [9] | also measured
1 | CCn1cc(-c2cc(NS(=O)(=O)C(F)(F)F)c(C)cc2C)c(=O)n(CC)c1=O [Compound 44] | 70 | 70 | 90 | 90 | 80 | 90 | 80 | 90 | 30 | 30 | 100 | 100 | 0 | 70 | 100 | 100 | 100 | 100 | 20 | 50 | Plant response rating, Foxtail, Giant [10, 16]: 90; Foxtail, Giant plant response rating [10]: 90; Plant response rating, Kochia (kochia (Bassia scoparia) [11]; [16]): 10; Kochia plant response rating (kochia (Bassia scoparia) [11]): 30; Kochia plant response rating (kochia (Bassia scoparia) [12]): 0; Plant response rating, Kochia (kochia (Bassia scoparia) [12]; 500 g ai/ha): 60; Pigweed plant response rating [13]: 40; Plant response rating, Pigweed ([13]; 500 g ai/ha): 100; Ragweed plant response rating [14]: 0; Plant response rating, Ragweed ([14]; 500 g ai/ha): 10; Plant response rating, Galium [15, 16]: 80; Galium plant response rating [15]: 90
2 | CCn1nc(Cl)cc(-c2cc(N(S(C)(=O)=O)S(=O)(=O)C(F)(F)F)c(C)cc2C)c1=O [Compound 45] | 40 | 70 | 20 | 70 | 30 | 70 | 0 | 60 | 50 | 90 | 90 | 100 | 10 | 30 | 100 | 100 | 80 | 100 | 20 | 70 | Plant response rating, Foxtail, Giant [10, 16]: 0; Foxtail, Giant plant response rating [10]: 60; Plant response rating, Kochia (kochia (Bassia scoparia) [11]; [16]): 10; Kochia plant response rating (kochia (Bassia scoparia) [11]): 50; Kochia plant response rating (kochia (Bassia scoparia) [12]): 70; Plant response rating, Kochia (kochia (Bassia scoparia) [12]; 500 g ai/ha): 100; Pigweed plant response rating [13]: 60; Plant response rating, Pigweed ([13]; 500 g ai/ha): 90; Ragweed plant response rating [14]: 60; Plant response rating, Ragweed ([14]; 500 g ai/ha): 80; Plant response rating, Galium [15, 16]: 10; Galium plant response rating [15]: 40
3 | Cc1cc(C)c(N(S(C)(=O)=O)S(=O)(=O)C(F)(F)F)cc1-c1cc(Cl)nn(C)c1=O [Compound 46] | 0 | 50 | 0 | 0 | 0 | 0 | 0 | 0 | 0 | 0 | 0 | 70 | 0 | 0 | 90 | 90 | 50 | 80 | 0 | 0 | Plant response rating, Foxtail, Giant [10, 16]: 0; Foxtail, Giant plant response rating [10]: 0; Plant response rating, Kochia (kochia (Bassia scoparia) [11]; [16]): 0; Kochia plant response rating (kochia (Bassia scoparia) [11]): 0; Kochia plant response rating (kochia (Bassia scoparia) [12]): 0; Plant response rating, Kochia (kochia (Bassia scoparia) [12]; 500 g ai/ha): 0; Pigweed plant response rating [13]: 0; Plant response rating, Pigweed ([13]; 500 g ai/ha): 50; Ragweed plant response rating [14]: 0; Plant response rating, Ragweed ([14]; 500 g ai/ha): 0; Plant response rating, Galium [15, 16]: 0; Galium plant response rating [15]: 0
4 | Cc1cc(C)c(N(S(=O)(=O)C(F)(F)F)S(=O)(=O)C(F)(F)F)cc1-c1cc(C(C)C)nn(C)c1=O [Compound 47] | 50 | 60 | 50 | 80 | 0 | 0 | 10 | 50 | 40 | 80 | 50 | 90 | 10 | 0 | 10 | 90 | 50 | 100 | 70 | 80 | Plant response rating, Foxtail, Giant [10, 16]: 40; Foxtail, Giant plant response rating [10]: 80; Plant response rating, Kochia (kochia (Bassia scoparia) [11]; [16]): 0; Kochia plant response rating (kochia (Bassia scoparia) [11]): 0; Kochia plant response rating (kochia (Bassia scoparia) [12]): 0; Plant response rating, Kochia (kochia (Bassia scoparia) [12]; 500 g ai/ha): 0; Pigweed plant response rating [13]: 0; Plant response rating, Pigweed ([13]; 500 g ai/ha): 0; Ragweed plant response rating [14]: 20; Plant response rating, Ragweed ([14]; 500 g ai/ha): 60; Plant response rating, Galium [15, 16]: 30; Galium plant response rating [15]: 40
5 | COC(=O)C1CCN(C(=O)c2cc(NS(=O)(=O)C(F)(F)F)c(C)cc2C)CC1 [Compound 50] | – | – | – | – | – | – | – | – | – | – | – | – | – | – | – | – | – | – | – | – | Plant response rating, Wheat [1, 17]: 50; Plant response rating, Barnyardgrass [2, 17]: 60; Plant response rating, Pigweed [3, 17]: 90; Plant response rating, Blackgrass [4, 17]: 20; Plant response rating, Ryegrass, Italian [5, 17]: 90; Plant response rating, Barnyardgrass ([6]; 1000 g ai/ha): 100; Plant response rating, Corn (corn (Zea mays); [17]): 10; Plant response rating, Foxtail, Giant ([7]; 1000 g ai/ha): 100; Plant response rating, Ryegrass, Italian ([8]; 1000 g ai/ha): 70; Plant response rating, Ragweed [9, 17]: 50; Plant response rating, Foxtail, Giant [10, 17]: 90; Plant response rating, Kochia (kochia (Bassia scoparia) [11]; [17]): 60; Plant response rating, Kochia (kochia (Bassia scoparia) [12]; 1000 g ai/ha): 90; Plant response rating, Pigweed ([13]; 1000 g ai/ha): 100; Plant response rating, Ragweed ([14]; 1000 g ai/ha): 80; Plant response rating, Galium [15, 17]: 90
